Data from patent US11998665B2, “Biodegradable ureteral stents, methods and uses thereof” (ASSOCIATION FOR THE ADVANCEMENT OF TISSUE ENGINEERING AND …, priority 2016, dated 2024).
≈ marks a conversion by molar mass, not a printed value. Like-named read-outs stand apart in the source and are kept apart here.

Key:
[1] = tested on: T24 cells (human urothelial carcinoma cell line); test: MTT cell viability, free anti-cancer drugs, IC50 determination in T24 cells; format: cell-based
Protocol: (§1) In an embodiment, the present disclosure used a human urothelial carcinoma cell line, T24 (ATCC, U.S.A.) as a cancer cell line to model the urothelial carcinoma and human umbilical vein endothelial cells, HUVEC, (ATCC, U.S.A.) as a control, non-cancerous cell line. The T24 cell line and HUVEC cells were cultured in RPMI-1640 and EGM™-2 medium, respectively, with (10% fetal bovine serum (FBS), 1 mM L-glutamine and 1% penicillin/streptomyocin), Cells were maintained at 37° C. in a humidified 5% CO2 atmosphere.
(§2) In an embodiment, in vitro efficacy of anti-cancer drugs against T24 cells and HUVEC cells-IC50 determination. The cytotoxicity of paclitaxel, epirubicin, doxorubicin and gemcitabine was evaluated by determining the viability of T24 and HUVEC cells after exposure to medium containing the free drug at a range of concentrations from 0.01 to 2000 ng/ml. Free drugs in medium were prepared by first dissolving the anticancer drugs in DMSO (50 mg/ml) and this solution was then diluted in culture medium to achieve the desired concentration. A standard MTT cell proliferation assay (CellTiter 96® Aqueous One Solution Cell Proliferation Assay) was used to test cell viability and was performed on both cell lines to determine the half maximal inhibitory concentration (1050) of each drug. 5000 cells per well were seeded in a 96-well plate with 100 μl medium for T24 and HUVEC cells. After incubation for 24 h, the medium in each well was aspirated off and the cells were exposed to 100 μl of fresh medium containing the drugs at various concentrations for 4 h and 72 h. The cells after 4 h treatment were further cultured for 72 h in fresh (drug-free) medium. After that, the culture medium in each well was replaced by 100 μl of medium and 20 μl of CellTiter 96® AQueous One Solution Reagent, followed by 4 h incubation at 37° C. A latex rubber extract was used as negative control for cell death; while cell culture medium was used as positive control. Cell viability was quantified by UV-spectroscopy, reading the formazan absorbance at 490 nm in a microplate reader (SpectraMax i3, Molecular Devices, USA). Each sample formulation and control was tested using 12 replicates.
(§3) In an embodiment, the 1050 was determined from the fitting of the curve of cell viability, measured by MTT and the drug concentration. The fitting was performed using GraphPad software (GraphPad Prism 6.00 software, San Diego, USA).
(§4) In an embodiment, the effect of the anti-cancer drugs (IC50) when in contact with T24 and HUVEC cells was investigated by a cell viability test, namely the MTT assay. From this, the IC50 was calculated for each of the four drugs in each of the two cell lines. In this case, IC50 is a measure of the concentration needed to inhibit cell survival, and is routinely used to specify the in vitro potency of a drug (Sebaugh, 2011). The T24 cell line was chosen as a muscle invasive urothelial cancer and the HUVEC cells were used as non-cancerous control cells. The cytotoxicity evaluation was carried out either after 4 h or 72 h of exposure of the cells to the free drugs at different concentrations (FIGS. 5 A and B). […] In FIGS. 5 (A and B) it is possible to see, for both cell types the trend of concentration-dependent cytotoxicity. These are similar, in all cases and as it would be expected the 72 h exposure present a higher killing efficacy. Comparing the results between the two cells it is possible to conclude that the cancer cells are much more sensitive to the anti-cancer drugs compared with the HUVEC cells.

[2] = tested on: HUVEC cells (human umbilical vein endothelial cells); test: MTT cell viability, free anti-cancer drugs, IC50 determination in HUVEC cells; format: cell-based
Protocol: as §1, §2, §3, §4

[3] = Quantity of drug impregnated in stents by scCO2 (UV-spectroscopy after degradation in AUS); format: physicochemical; conditions: for Quantity of drug impregnated by scCO2: 90 min, 100 bar, 40° C.; for increase in the impregnation yield when ethanol was used as a co-solvent: DrugEtOH versus pure scCO2; for % loaded: amount of drug impregnated by scCO2 in BUS
Protocol: In an embodiment, a supercritical CO2 impregnation of anti-cancer drugs was performed, in the biodegradable ureteral stents (BUS) of the present disclosure. The were biodegradable ureteral stents prepared were placed in high-pressure vessel with anti-cancer drugs (10 mg) according to FIG. 2. The anti-cancer drugs were impregnated in the stents with and without the presence of a co-solvent. The scCO2 impregnation conditions used were 100 bar at 40° C. and 90 min. Carbon dioxide was liquefied and pumped to the desired pressure using a membrane pump (MCPV-71, Haskel, Germany). Impregnation took place in batch mode for 90 min followed by fast depressurization of the system. When a co-solvent was employed, 10% (v/v) ethanol was used. A commercial non-degradable ureteral stent (Biosoft® duo, Porges, Coloplast) was impregnated with same drugs at the same conditions with co-solvent, to be used as a control. To enhance the mechanical properties of the stent a PCL coating was applied. To evaluate the effect of coating on the release of the drugs the condition BUS+Co-Solvent was prepared twice and one of this batches was coated with PCL resin.
The anticancer drugs impregnation yield (I) was calculated from Eq. (1): I(%)=mdrug/mstent+mdrug×100 Eq. (1) where mstent is the polymer mass at the beginning of the process and the mdrug is the mass of the respective anticancer drug released after complete degradation of the stents in AUS. Anti-cancer drugs concentration was calculated from a calibration curve prepared from standard solutions. The samples were analyzed by UV-spectroscopy using a microplate reader (SpectraMax i3, Molecular Devices, USA) at the maximum absorbance for each drug (227 nm for PA, 254 nm for EP and DOX and 268 nm for GEM). All the experiments were performed in triplicate.
In an embodiment, impregnation efficiency of anti-cancer drugs in the biodegradable ureteral stents (BUS) was determined as a function of mass (μg) of anti-cancer drugs per mass (mg) of the polymer. In the DrugEtOH conditions, the amount of anti-cancer drug impregnated in the stents is higher, as it would be expected due to the co-solvent effect of ethanol in the enhancement of drug the solubility in CO2. The amount of impregnated paclitaxel in pure scCO2 (PAbio) was 0.046 μg mg-1, whereas those in PAEtOH condition was […] (0.067 μg mg-1). A similar percentage was reported by Yoda et al. (Yoda et al., 2011) in which the authors report the impregnation of paclitaxel in an amorphous poly(DL-lactic acid) (PDLLA) matrix. The amount of paclitaxel impregnated by Yoda et al. in PDLLA was 2-3 times higher compared with the alginate/gelatin matrix obtained in this work. This can be justified by the higher affinity of the drug-CO2 solution in the hydrophobic PDLLA matrix (Kazarian, 2000). Furthermore, PDLLA may also have greater swelling in the presence of scCO2 than the alginate/gelatin polymer blend (Cooper, 2000; Yoda et al., 2011). […] In the case of the Biosoft® duo, Porges, Coloplast stents the amount of drug impregnated is 6-times lower compared with BUS impregnated with paclitaxel under the same conditions. The lower amount of drug impregnated can be related with lower swelling ability of the polymeric matrix of the commercial stent in scCO2 and/or by lower affinity of the drugs with composition material of the Biosoft® duo, Porges, Coloplast stent.

T24 cancer cells = conditions: cited from earlier work
[4] = T-24, 4 h exposure then 72 h in drug-free medium
[5] = 4 h exposure then 72 h in drug-free medium
[6] = DrugCom: commercial non-degradable stent with co-solvent
[7] = DrugETOH: BUS + 10% ethanol co-solvent
[8] = Drugbio: BUS without co-solvent

SMILES	IC50 [1, 4] [µg/mL]	IC50 ([1]; T-24, 72 h exposure) [µg/mL]	IC50 [2, 5] [µg/mL]	IC50 ([2]; 72 h exposure) [µg/mL]	Quantity of drug impregnated by scCO2 [3, 6] [μgdrug/mgpolymer]	Quantity of drug impregnated by scCO2 [3, 7] [μgdrug/mgpolymer]	increase in the impregnation yield when ethanol was used as a co-solvent [3] [%]	Quantity of drug impregnated by scCO2 [3, 8] [μgdrug/mgpolymer]	IC50 (T24 cancer cells; doxorubicin, T24 cancer cells, Lu et al., 2015a) [µg/mL]	IC50 (T24 cancer cells; doxorubicin, T24 cancer cells, Yu et al., 2015) [µg/mL]	Quantity of drug impregnated by scCO2 ([3]; DrugETOH: BUS + 10% ethanol co-solvent, listed as gemcitabine) [μgdrug/mgpolymer]	% loaded [3] [%]	IC50 (T24 cancer cells; paclitaxel, Hadaschik et al., 2008) [µg/mL]
COc1cccc2c1C(=O)c1c(O)c3c(c(O)c1C2=O)C[C@@](O)(C(=O)CO)C[C@@H]3O[C@H]1C[C@H](N)[C@H](O)[C@H](C)O1 [Doxorubicin, doxorubicin]	187 ± 5.18 (≈ 344 µM)	29.3 ± 10 (≈ 53.9 µM)	2150 ± 58.2 (≈ 3950 µM)	647 ± 21.4 (≈ 1190 µM)	0.208	3.748	12	3.297	0.0116 (≈ 0.0213 µM)	4 (≈ 7.36 µM)	–	–	–
COc1cccc2c1C(=O)c1c(O)c3c(c(O)c1C2=O)C[C@@](O)(C(=O)CO)C[C@@H]3O[C@H]1C[C@H](N)[C@@H](O)[C@H](C)O1 [Epirubicin, epirubicin]	67 ± 2.34 (≈ 123 µM)	15.7 ± 1.02 (≈ 29 µM)	2050 ± 33.2 (≈ 3770 µM)	139 ± 13.6 (≈ 256 µM)	0.118	1.779	15	1.498	–	–	–	–	–
Nc1ccn([C@@H]2O[C@H](CO)[C@@H](O)C2(F)F)c(=O)n1 [Gemcitabine, gemcitabine]	99 ± 1.29 (≈ 376 µM)	0.89 ± 0.27 (≈ 3.38 µM)	413.6 ± 2.68 (≈ 1570 µM)	237 ± 16.7 (≈ 901 µM)	2.312	19.572	8	18.183	–	–	19.57	2	–
CC(=O)O[C@H]1C(=O)[C@@]2(C)[C@H]([C@H](OC(=O)c3ccccc3)[C@]3(O)C[C@H](OC(=O)[C@H](O)[C@@H](NC(=O)c4ccccc4)c4ccccc4)C(C)=C1C3(C)C)[C@]1(OC(C)=O)CO[C@@H]1C[C@@H]2O [Paclitaxel, paclitaxel]	0.282 (≈ 0.33 µM)	0.0073 (≈ 0.00855 µM)	0.85 (≈ 0.995 µM)	0.502 (≈ 0.587 µM)	0.014	0.067	–	0.046	–	–	–	0.01	0.00285 (≈ 0.00334 µM)
